The subject of test [1] is DU145 Cells. Briefly: Cytotoxicity on DU145 tumor cells, viable cells by Trypan blue exclusion. In kind it is cell-based, human. To be noted: DU145 prostate cell line, 96 h continuous treatment, five concentrations (1-100 μM range). As to the method: The effect of compounds according to Formula I on the growth of human tumor cells in culture was evaluated using the androgen receptor negative prostate cell line DU145. All cell cultures were maintained at 37° C. in a humidified atmosphere of 5% CO2.
Cells were treated with compounds according to Formula I at five different concentrations (1-100 μM range) for each compound. The dose response of each cell line was established by determining the number of viable cells after 96 h of continuous treatment against each of the different test concentrations of each compound. The determination of viable cells was done by the by the Trypan blue exclusion method. An IC50 (μM) for each compound was determined.

The target of test [2] is T1, CDK1/CyclinB (Homo sapiens, UniProt P06493).
T1 construct: purchased Upstate USA, Charlottesville, Va
The test is described as follows: In vitro kinase assay CDK1/CyclinB, 32P incorporation into Histone H1. In kind it is biochemical. To be noted: recombinant human enzyme complex, average of two independent experiments in triplicate.

For test [3], the target named is CDK4/CyclinD1 (Homo sapiens, UniProt P11802). The test is described as follows: In vitro kinase assay CDK4/CyclinD1, 32P incorporation into GST-Rb.
The target of test [4] is T2, CDK2/CylinE (Homo sapiens, UniProt P24941).
T2 construct: purchased Upstate USA, Charlottesville, Va
The test is described as follows: In vitro kinase assay CDK2/CylinE, 32P incorporation into Histone H1. The test is classed as biochemical. The note with it: recombinant human enzyme complex, average of two independent experiments in triplicate.

The target in test [5] is T3, CDK9/CyclinT1 (Homo sapiens, UniProt P50750).
T3 construct: purchased Upstate USA, Charlottesville, Va
The test is described as follows: In vitro kinase assay CDK9/CyclinT1, 32P incorporation into RNA Polymerase II carboxy terminal domain. The note with it: recombinant human enzyme complex, average of two independent experiments in triplicate. In kind it is biochemical.

Molecules are shown by their SMILES. Where two headings read alike, the source gives them in different places.

T1 sequence (P06493 whole entry): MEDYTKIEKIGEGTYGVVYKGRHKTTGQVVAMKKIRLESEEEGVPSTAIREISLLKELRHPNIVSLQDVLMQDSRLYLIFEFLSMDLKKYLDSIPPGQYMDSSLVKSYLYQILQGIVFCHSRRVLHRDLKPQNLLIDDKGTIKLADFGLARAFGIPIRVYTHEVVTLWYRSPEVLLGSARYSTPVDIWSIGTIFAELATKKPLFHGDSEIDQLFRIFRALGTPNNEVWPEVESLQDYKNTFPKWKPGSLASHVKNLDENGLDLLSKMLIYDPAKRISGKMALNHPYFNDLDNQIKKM
T1 sequence (P14635 whole entry partner): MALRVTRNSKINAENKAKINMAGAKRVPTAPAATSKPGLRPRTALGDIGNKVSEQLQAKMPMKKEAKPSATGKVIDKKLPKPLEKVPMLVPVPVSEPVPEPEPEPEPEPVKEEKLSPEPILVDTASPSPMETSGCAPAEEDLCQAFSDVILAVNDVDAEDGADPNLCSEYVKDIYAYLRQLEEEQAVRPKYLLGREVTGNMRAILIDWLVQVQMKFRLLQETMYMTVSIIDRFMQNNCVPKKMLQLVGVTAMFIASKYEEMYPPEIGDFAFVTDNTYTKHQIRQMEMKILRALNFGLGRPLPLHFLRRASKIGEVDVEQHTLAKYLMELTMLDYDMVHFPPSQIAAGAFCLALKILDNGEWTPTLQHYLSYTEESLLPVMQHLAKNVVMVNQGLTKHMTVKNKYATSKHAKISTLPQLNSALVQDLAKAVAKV
T3 sequence (P50750 whole entry): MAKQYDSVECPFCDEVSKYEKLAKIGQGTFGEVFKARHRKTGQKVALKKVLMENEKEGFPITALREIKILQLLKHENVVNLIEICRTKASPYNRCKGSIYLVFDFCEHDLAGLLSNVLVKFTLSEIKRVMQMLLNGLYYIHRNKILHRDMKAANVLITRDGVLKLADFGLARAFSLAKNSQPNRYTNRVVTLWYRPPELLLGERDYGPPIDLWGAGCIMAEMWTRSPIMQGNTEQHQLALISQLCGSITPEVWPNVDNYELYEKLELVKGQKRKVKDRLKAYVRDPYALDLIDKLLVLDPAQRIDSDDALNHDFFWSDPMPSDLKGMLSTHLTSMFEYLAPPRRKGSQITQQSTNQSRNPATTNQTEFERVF
T3 sequence (O60563 whole entry partner): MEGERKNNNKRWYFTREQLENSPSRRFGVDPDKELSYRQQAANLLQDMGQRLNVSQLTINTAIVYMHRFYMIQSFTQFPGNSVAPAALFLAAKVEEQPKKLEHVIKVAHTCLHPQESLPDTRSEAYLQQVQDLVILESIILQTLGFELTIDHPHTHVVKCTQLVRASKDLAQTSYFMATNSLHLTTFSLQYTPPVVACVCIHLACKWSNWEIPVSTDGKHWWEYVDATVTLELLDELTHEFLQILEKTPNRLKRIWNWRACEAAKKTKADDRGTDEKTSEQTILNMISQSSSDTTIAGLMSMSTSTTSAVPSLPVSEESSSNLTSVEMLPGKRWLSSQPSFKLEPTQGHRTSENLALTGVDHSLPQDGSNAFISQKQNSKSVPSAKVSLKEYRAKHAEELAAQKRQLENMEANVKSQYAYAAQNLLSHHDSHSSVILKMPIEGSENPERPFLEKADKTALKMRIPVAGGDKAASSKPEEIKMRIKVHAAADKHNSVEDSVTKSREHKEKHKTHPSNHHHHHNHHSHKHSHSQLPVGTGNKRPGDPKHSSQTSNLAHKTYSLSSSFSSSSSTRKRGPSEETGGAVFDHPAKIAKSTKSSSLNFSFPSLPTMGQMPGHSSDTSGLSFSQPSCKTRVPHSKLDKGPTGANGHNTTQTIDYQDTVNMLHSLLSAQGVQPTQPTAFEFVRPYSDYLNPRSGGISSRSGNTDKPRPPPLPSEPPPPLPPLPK
CDK4/CyclinD1, sequence (P11802 whole entry): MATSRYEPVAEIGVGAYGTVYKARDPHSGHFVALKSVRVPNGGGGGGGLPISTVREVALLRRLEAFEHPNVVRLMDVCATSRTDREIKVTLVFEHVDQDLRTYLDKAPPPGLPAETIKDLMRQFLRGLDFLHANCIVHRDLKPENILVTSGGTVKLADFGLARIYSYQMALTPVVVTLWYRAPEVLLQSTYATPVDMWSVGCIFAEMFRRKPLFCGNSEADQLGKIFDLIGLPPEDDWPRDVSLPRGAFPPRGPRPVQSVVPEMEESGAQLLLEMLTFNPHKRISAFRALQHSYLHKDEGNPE
CDK4/CyclinD1, sequence (P24385 whole entry partner): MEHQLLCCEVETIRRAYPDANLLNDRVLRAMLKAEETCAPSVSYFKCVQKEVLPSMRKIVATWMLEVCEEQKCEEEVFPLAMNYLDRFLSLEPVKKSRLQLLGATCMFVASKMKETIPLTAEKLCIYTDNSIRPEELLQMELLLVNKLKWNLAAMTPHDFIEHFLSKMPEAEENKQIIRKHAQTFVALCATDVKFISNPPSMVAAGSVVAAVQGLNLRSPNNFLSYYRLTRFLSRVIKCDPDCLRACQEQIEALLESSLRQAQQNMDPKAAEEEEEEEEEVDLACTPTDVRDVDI

`O=C(c1cc2cc(Br)ccc2oc1=O)c1cc2cc(Br)ccc2oc1=O` [Example 1, 6-bromo-3-[(6-bromo-2-oxo-chromen-3-yl)carbonyl]chromen-2-one]: the half-inhibitory concentration (IC50) in test [1] (Homo sapiens, DU-145) was over 100 µM; in test [2], over 10 µM; in test [3], over 10 µM.

Consider `COc1ccc2cc(C(=O)c3cc4ccc(OC)cc4oc3=O)c(=O)oc2c1` [Example 2, 7-methoxy-3-[(7-methoxy-2-oxochromen-3-yl)carbonyl]chromen-2-one], for which the IC50 in test [1] (Homo sapiens, DU-145) was over 100 µM; in test [2], over 10 µM; in test [3] it was over 10 µM.

Take `COc1cc(OC)c2cc(C(=O)c3cc4c(OC)cc(OC)cc4oc3=O)c(=O)oc2c1` [Example 3, 5,7-dimethoxy-3-[(5,7-dimethoxy-2-oxochromen-3-yl)carbonyl]chromen-2-one]: the IC50 was over 100 µM in test [1] (Homo sapiens, DU-145); over 10 µM in test [2]; over 10 µM in test [3].

In the case of `CCOc1cccc2cc(C(=O)c3cc4cccc(OCC)c4oc3=O)c(=O)oc12` [Example 4, 8-ethoxy-3-[(8-ethoxy-2-oxochromen-3-yl)carbonyl]chromen-2-one], the concentration for half-maximal inhibition (IC50) was over 100 µM in test [1] (Homo sapiens, DU-145); over 10 µM in test [2]; over 10 µM in test [3].

On to `O=C(c1cc2ccccc2oc1=O)c1cc2ccccc2oc1=O` [Example 5], for which the concentration for half-maximal inhibition (IC50) in test [1] (Homo sapiens, DU-145) was over 100 µM; in test [2] it was over 10 µM; in test [3], over 10 µM.

Regarding `O=C(c1cc2cc(Cl)ccc2oc1=O)c1cc2cc(Cl)ccc2oc1=O` [Example 6, 6-chloro-3-[(6-chloro-2-oxochromen-3-yl)carbonyl]chromen-2-one], the IC50 in test [1] (Homo sapiens, DU-145) is over 100 µM; in test [2] it was 1 to 10 µM; in test [3] it was over 10 µM.

Take `O=C(c1cc2cc(F)ccc2oc1=O)c1cc2cc(F)ccc2oc1=O` [Example 7, 6-fluoro-3-[(6-fluoro-2-oxochromen-3-yl)carbonyl]chromen-2-one]: the IC50 in test [1] (Homo sapiens, DU-145) was over 100 µM; in test [2], over 10 µM; in test [3], over 10 µM.

With `O=C(c1cc2cc(I)ccc2oc1=O)c1cc2cc(I)ccc2oc1=O` [Example 8, 6-iodo-3-[(6-iodo-2-oxochromen-3-yl)carbonyl]chromen-2-one], the half-maximal inhibitory concentration (IC50) in test [1] (Homo sapiens, DU-145) is over 100 µM; in test [2] it was over 10 µM; in test [3], over 10 µM.

`O=C(c1cc2cc([N+](=O)[O-])ccc2oc1=O)c1cc2cc([N+](=O)[O-])ccc2oc1=O` [Example 9, 6-nitro-3-[(6-nitro-2-oxochromen-3-yl)carbonyl]chromen-2-one]: the IC50 in test [1] (Homo sapiens, DU-145) is 1 to 10 µM; in test [4] it was 1.54 µM; in test [2], over 10 µM; in test [5], 0.5 µM; in test [3] it was over 10 µM.

For the molecule `COc1cc([N+](=O)[O-])cc2cc(C(=O)c3cc4cc([N+](=O)[O-])cc(OC)c4oc3=O)c(=O)oc12` [Example 10, 8-methoxy-3-[(8-methoxy-6-nitro-2-oxo-chromen-3-yl)carbonyl]-6-nitro-chromen-2-one], the IC50 is 10 to 25 µM in test [1] (Homo sapiens, DU-145); 0.549 µM in test [4]; over 10 µM in test [2]; 0.5 µM in test [5]; over 10 µM in test [3].

In the case of `O=C(c1cc2ccc(O)cc2oc1=O)c1cc2ccc(O)cc2oc1=O` [Example 11, 7-hydroxy-3-[(7-hydroxy-2-oxo-chromen-3-yl)carbonyl]chromen-2-one], the IC50 in test [1] (Homo sapiens, DU-145) is over 100 µM; in test [2], over 10 µM; in test [3], over 10 µM.

Take `O=C(c1cc2cc(Cl)cc(Cl)c2oc1=O)c1cc2cc(Cl)cc(Cl)c2oc1=O` [Example 12, 6,8-dichloro-3-[(6,8-dichloro-2-oxochromen-3-yl)carbonyl]chromen-2-one]: the half-maximal inhibitory concentration (IC50) in test [1] (Homo sapiens, DU-145) was 10 to 25 µM; in test [2], over 10 µM; in test [3], 2.5 to 5 µM.

For the molecule `O=C(c1cc2cc(Br)cc(Br)c2oc1=O)c1cc2cc(Br)cc(Br)c2oc1=O` [Example 13, 6,8-dibromo-3-[(6,8-dibromo-2-oxochromen-3-yl)carbonyl]chromen-2-one], the IC50 is 10 to 25 µM in test [1] (Homo sapiens, DU-145); 10 µM in test [4]; 0.5 µM in test [5]; 2.5 to 5 µM in test [3].

Regarding `O=C(c1cc2cc(F)cc(F)c2oc1=O)c1cc2cc(F)cc(F)c2oc1=O` [Example 14, 6,8-difluoro-3-[(6,8-difluoro-2-oxochromen-3-yl)carbonyl]chromen-2-one], the 50% inhibitory concentration (IC50) is 10 to 25 µM in test [1] (Homo sapiens, DU-145); over 10 µM in test [2]; over 10 µM in test [3].

`COc1ccc(Br)c2cc(C(=O)c3cc4c(Br)ccc(OC)c4oc3=O)c(=O)oc12` [Example 15, 5-bromo-8-methoxy-3-[(5-bromo-8-methoxy-2-oxochromen-3-yl)-carbonyl]chromen-2-one]: the IC50 in test [1] (Homo sapiens, DU-145) was 25 to 50 µM; in test [2], over 10 µM; in test [3], over 10 µM.

Take `COc1cc(Br)cc2cc(C(=O)c3cc4cc(Br)cc(OC)c4oc3=O)c(=O)oc12` [Example 16, 6-bromo-8-methoxy-3-[(6-bromo-8-methoxy-2-oxochromen-3-yl)-carbonyl]chromen-2-one]: the IC50 in test [1] (Homo sapiens, DU-145) was 50 to 100 µM; in test [2], over 10 µM; in test [3], over 10 µM.

With `O=C(c1cc2cccc(O)c2oc1=O)c1cc2cccc(O)c2oc1=O` [Example 17, 8-hydroxy-3-[(8-hydroxy-2-oxochromen-3-yl)carbonyl]chromen-2-one], the IC50 in test [1] (Homo sapiens, DU-145) is 25 to 50 µM; in test [2], over 10 µM; in test [3], over 10 µM.

On to `O=C(c1cc2cc(O)ccc2oc1=O)c1cc2cc(O)ccc2oc1=O` [Example 18, 6-hydroxy-3-[(6-hydroxy-2-oxochromen-3-yl)carbonyl]chromen-2-one], for which the concentration for half-maximal inhibition (IC50) in test [1] (Homo sapiens, DU-145) is over 100 µM; in test [2], over 10 µM; in test [3] it was over 10 µM.

Take `O=C(c1cc2cc(Cl)cc(Br)c2oc1=O)c1cc2cc(Cl)cc(Br)c2oc1=O` [Example 19, 6-chloro-8-bromo-3-[(6-chloro-8-bromo-2-oxochromen-3-yl)carbonyl]-chromen-2-one]: the half-inhibitory concentration (IC50) was 1 to 10 µM in test [1] (Homo sapiens, DU-145); 0.089 µM in test [4]; 1 to 10 µM in test [2]; 0.5 µM in test [5]; over 10 µM in test [3].

Consider `O=C(c1cc2cc3ccccc3cc2oc1=O)c1cc2cc3ccccc3cc2oc1=O` [Example 20, [(2-oxobenzo[g]chromen-3-yl)-carbonyl]benzo[g]chromen-2-one], for which the half-inhibitory concentration (IC50) was 25 to 50 µM in test [1]; over 10 µM in test [2]; over 10 µM in test [3] (read-out: CDK4 IC50, recombinant human enzyme complex, average of two independent experiments in triplicate).

For `COc1cccc2oc(=O)c(C(=O)c3cc4c(OC)cccc4oc3=O)cc12` [Example 21, 5-methoxy-3-[(5-methoxy-2-oxochromen-3-yl)carbonyl]chromen-2-one], the half-inhibitory concentration (IC50) is 50 to 100 µM in test [1] (Homo sapiens, DU-145); 10 µM in test [4]; over 10 µM in test [2]; 0.5 µM in test [5]; over 10 µM in test [3].

Turning to `Cc1ccc2oc(=O)c(C(=O)c3cc4cc(C)ccc4oc3=O)cc2c1` [Example 22, 6-methyl-3-[(6-methyl-2-oxochromen-3-yl)carbonyl]chromen-2-one], the concentration for half-maximal inhibition (IC50) in test [2] was 1 to 10 µM; in test [3] it was over 10 µM.

Turning to `O=C(c1cc2cc(OC(F)(F)F)ccc2oc1=O)c1cc2cc(OC(F)(F)F)ccc2oc1=O` [Example 23, 6-trifluoromethoxy-3-[(6-tri-fluoromethoxy-2-oxochromen-3-yl)-carbonyl]chromen-2-one], the IC50 in test [2] and in test [3] was over 10 µM each time.

With `O=C(c1cc2cccc([N+](=O)[O-])c2oc1=O)c1cc2cccc([N+](=O)[O-])c2oc1=O` [Example 24, 8-nitro-3-[(8-nitro-2-oxo-chromen-3-yl)carbonyl]chromen-2-one], the IC50 in test [2] and in test [3] was over 10 µM each time.

Turning to `O=C(c1cc2cccc(F)c2oc1=O)c1cc2cccc(F)c2oc1=O` [Example 26, 8-fluoro-3-[(8-fluoro-2-oxochromen-3-yl)carbonyl]chromen-2-one], the IC50 in test [2] and in test [3] was over 10 µM in each case.

With `O=C(c1cc2cc([N+](=O)[O-])cc(Br)c2oc1=O)c1cc2cc([N+](=O)[O-])cc(Br)c2oc1=O` [Example 27, 6-nitro-8-bromo-3-[(6-nitro-8-bromo-2-oxocbromen-3-yl)carbonyl]-chromen-2-one], in test [3], the concentration for half-maximal inhibition (IC50) was over 10 µM.

On to `O=C(c1cc2cc(I)cc(I)c2oc1=O)c1cc2cc(I)cc(I)c2oc1=O` [Example 29, 6,8-diiodo-3-[(6,8-diiodo-2-oxochromen-3-yl)carbonyl]chromen-2-one], for which the half-maximal inhibitory concentration (IC50) in test [1] (Homo sapiens, DU-145) was 10 to 20 µM; in test [3], 0.04 µM.

(Values after US8067461B2, “3-acyl coumarins, thiochromones and quinolones and therapeutic uses thereof” (Temple University-Of The Commonwealth System of Higher …, priority 2005, dated 2011).)
